# Values of other authors as cited in patent US11213557B2, “Lactobacillus plantarum CCFM1019, fermented foods thereof, and application thereof in preparation of medicine for promoting excretion of plasticizers and metabolites thereof from body” (priority 2018, dated 2022).
# [1] = human body, 24 h after DEHP enters the body
smiles,measurement,setting,value
"CCCCC(CC)COC(=O)c1ccccc1C(=O)OCC(CC)CCCC (centres unmarked) [DEHP, bis(2-ethylhexyl) phthalate]",Half-life,DEHP stored in adipose tissue,156 h
same,Absorption and distribution period,human body,4 to 8 h
same,Time within which most of the DEHP is completely metabolized,human body,≤ 24 h
same,DEHP converted into five secondary metabolites and excreted in urine,[1],about 67%
same,DEHP directly excreted in urine,[1],less than 10%
